Results: patent US20240409556A1, “BENZOPIPERAZINE AND RELATED ANALOGS FOR INHIBITING YAP/TAZ-TEAD” (Springworks Therapeutics, Inc., priority 2023, published 2024)

Tests used:
Format in all cases: cell-based
[1] = test system: YAP/TAZ-TEAD transcription; experiment: Reporter gene assay for measuring the inhibition of YAP/TAZ-TEAD transcription (TEAD-responsive element luciferase reporter in Hek293T cells); conditions: 24 hours incubation
In short: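 HEK293T cells transiently transfected with a TEAD-responsive luciferase reporter were exposed to compounds for 24 h at 37° C/5% CO2, then luminescence was read. Percent inhibition normalised to vehicle (0%) and positive-control inhibitor (100%); IC50 derived.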

[2] = test system: NCI-H226 mesothelioma cell line; experiment: Mesothelioma cell line proliferation assay, NCI-H226 (ATPlite); conditions: NCI-H226 cells, 6 days with compound, cell viability by ATPlite
Description: (§1) Example 57: Activity of Compounds of the Disclosure in Mesothelioma Cell Line Proliferation Assays
(§2) Mesothelioma cell lines, NCI-H226 and NCI-H2052 (both sourced from the ATCC cell culture collection) were plated in 96-well plates (Corning® 96 Well White Polystyrene Microplate clear flat bottom, white polystyrene (TC-Treated)), at 1500 cells/well in full medium (RPMI 1640 ATCC modification with L-glutamine, HEPES, Phenol Red, Sodium Pyruvate, High glucose, Low sodium bicarbonate and 10% fetal bovine serum). Cells were incubated overnight at 37° C. in an incubator with 5% CO2. Then compounds, dissolved in DMSO, were added in dose-response. Cells were incubated with compound dilutions for another 6 days at 37° C. in an incubator with 5% CO2. Cell viability was quantitated using the ATPlite kit (Perkin-Elmer) and the luminescence was read-out using an Envision instrument (Perkin-Elmer). The amount of relative light units produced using the ATPlite kit was used to calculate percent of inhibition.
(§3) The activities of some example compounds are depicted in Table 4. The activity ranges A, B and C refer to EC50 values in the mesothelioma cell line proliferation assay as described as follows: “A”: EC50<1 μM; “B”: 1 μM≤EC50≤10 μM and “C”: EC50>10 μM; NT: not tested.

[3] = test system: NCI-H2052 mesothelioma cell line; experiment: Mesothelioma cell line proliferation assay, NCI-H2052 (ATPlite); conditions: NCI-H2052 cells, 6 days with compound, cell viability by ATPlite
Description: as §1, §2, §3

Structure (SMILES)	IC50 [1] [nM]	EC50 ([2]; Homo sapiens, 144 h) [nM]	EC50 ([3]; Homo sapiens, 144 h) [nM]	IC50 ([1]; Homo sapiens, HEK-293T, 24 h) [nM]	EC50 [2] [nM]	EC50 [3] [nM]
CC(=O)NCC1CN(c2ccc(C(F)(F)F)cc2)c2cc(Cl)cnc2O1 (single isomer, unassigned) [75-En2, (R)- or (S)-N-((7-chloro-1-(4-(trifluoromethyl)phenyl)-2,3-dihydro-1H-pyrido[2,3-b][1,4]oxazin-3-yl)methyl)acetamide]	< 1000	< 1000	< 1000	–	–	–
CC(=O)NCC1CN(c2ccc(C(F)(F)F)cc2)c2ccccc2O1 (stereo not drawn) [compound 36, N-((4-(4-(trifluoromethyl)phenyl)-3,4-dihydro-2H-benzo[b][1,4]oxazin-2-yl)methyl)acetamide]	–	< 1000	< 1000	< 1000	–	–
C=CC(=O)NCC1CN(c2ccc(C(F)(F)F)cc2)c2ccccc2N1CCC(N)=O (stereo not drawn) [compound 13, N-((1-(3-amino-3-oxopropyl)-4-(4-(trifluoromethyl)phenyl)-1,2,3,4-tetrahydroquinoxalin-2-yl)methyl)acrylamide]	–	< 1000	< 1000	< 1000	–	–
O=C(NO)C1CCN2c3ccccc3N(c3ccc(C(F)(F)F)cc3)CC2C1 [116B-En2, (6aS,8S)- or (6aR,8S)- or (6aR,8R)- or (6aS,8R)-N-hydroxy-5-(4-(trifluoromethyl)phenyl)-6,6a,7,8,9,10-hexahydro-5H-pyrido[1,2-a]quinoxaline-8-carboxamide]	< 1000	< 1000	< 1000	–	–	–
C=CC(=O)NCC1CN(c2ccc(C(F)(F)F)cc2)c2ccccc2O1 (stereo not drawn) [compound 35, N-((4-(4-(trifluoromethyl)phenyl)-3,4-dihydro-2H-benzo[b][1,4]oxazin-2-yl)methyl)acrylamide]	–	< 1000	< 1000	< 1000	–	–
CC(=O)NCC1CN(c2ccc(C(F)(F)F)cc2)c2ccc(C3CC3)nc2O1 (single isomer, unassigned) [81-En1, (R)- or (S)-N-((6-cyclopropyl-1-(4-(trifluoromethyl)phenyl)-2,3-dihydro-1H-pyrido[2,3-b][1,4]oxazin-3-yl)methyl)acetamide]	–	< 1000	< 1000	< 1000	–	–
C=CC(=O)N1CCN2C(=O)CN(c3ccc(C(F)(F)F)cc3)CC2C1 (stereo not drawn) [compound 37, 8-acryloyl-2-(4-(trifluoromethyl)phenyl)octahydro-4H-pyrazino[1,2-a]pyrazin-4-one]	–	< 1000	< 1000	< 1000	–	–

Next, values leading:

IC50 [1] [nM]	EC50 ([2]; Homo sapiens, 144 h) [nM]	EC50 ([3]; Homo sapiens, 144 h) [nM]	IC50 ([1]; Homo sapiens, HEK-293T, 24 h) [nM]	EC50 [2] [nM]	EC50 [3] [nM]	Structure (SMILES)
–	< 1000	< 1000	< 1000	–	–	C=CC(=O)NCC1CN(c2ccc(C(F)(F)F)cc2)c2ccccc2N1CC#N (stereo not drawn) [compound 3, N-((1-(cyanomethyl)-4-(4-(trifluoromethyl)phenyl)-1,2,3,4-tetrahydroquinoxalin-2-yl)methyl)acrylamide]
< 1000	< 1000	< 1000	–	–	–	CNC(=O)N1CCN2c3ncccc3N(c3ccc(C(F)(F)F)cc3)CC2C1 (single isomer, unassigned) [52-En2, (R)- or (S)-N-methyl-5-(4-(trifluoromethyl)phenyl)-5,6,6a,7,9,10-hexahydro-8H-pyrazino[1,2-a]pyrido[3,2-e]pyrazine-8-carboxamide]
< 1000	< 1000	< 1000	–	–	–	C=CC(=O)N1CCN2c3ccccc3N(c3ccc(C(F)(F)F)cc3)CC2C1 (single isomer, unassigned) [14-En1, (R)- or (S)-1-(6-(4-(trifluoromethyl)phenyl)-1,2,4,4a,5,6-hexahydro-3H-pyrazino[1,2-a]quinoxalin-3-yl)prop-2-en-1-one]
–	1000 to 10000	> 10000	< 1000	–	–	CS(=O)(=O)N[C@@H]1C[C@@H]2CN(c3ccc(C(F)(F)F)cc3)c3cccnc3N2C1 [compound 85, N-((6aR,8R)-5-(4-(trifluoromethyl)phenyl)-5,6,6a,7,8,9-hexahydropyrido[3,2-e]pyrrolo[1,2-a]pyrazin-8-yl)methanesulfonamide]
–	< 1000	< 1000	< 1000	–	–	C=CC(=O)NCC1CN(c2ccc(C(F)(F)F)cc2)c2ccccc2N1 (stereo not drawn) [compound 22, N-((4-(4-(trifluoromethyl)phenyl)-1,2,3,4-tetrahydroquinoxalin-2-yl)methyl)acrylamide]
< 1000	–	–	–	< 1000	< 1000	C=CC(=O)N1CCN2c3ccccc3N(c3ccc(C(F)(F)F)cc3)CC2C1 (single isomer, unassigned) [14-En2, (R)- or (S)-1-(6-(4-(trifluoromethyl)phenyl)-1,2,4,4a,5,6-hexahydro-3H-pyrazino[1,2-a]quinoxalin-3-yl)prop-2-en-1-one]
–	< 1000	< 1000	< 1000	–	–	O=C(O)[C@@H]1C[C@@H]2CN(c3ccc(C(F)(F)F)cc3)c3cccnc3N2C1 [compound 102, (6aR,8R)-5-(4-(trifluoromethyl)phenyl)-5,6,6a,7,8,9-hexahydropyrido[3,2-e]pyrrolo[1,2-a]pyrazine-8-carboxylic acid]
–	< 1000	< 1000	< 1000	–	–	C=CC(=O)NCC1CN(c2ccc(C(F)(F)F)cc2)c2ccccc2N1C (stereo not drawn) [compound 17, N-((1-methyl-4-(4-(trifluoromethyl)phenyl)-1,2,3,4-tetrahydroquinoxalin-2-yl)methyl)acrylamide]
< 1000	< 1000	< 1000	–	–	–	CC(=O)NCC1CN(c2ccc(C(F)(F)F)cc2)c2ccc(N(C)C)nc2O1 (single isomer, unassigned) [87-En1, (R)- or (S)-N-((6-(dimethylamino)-1-(4-(trifluoromethyl)phenyl)-2,3-dihydro-1H-pyrido[2,3-b][1,4]oxazin-3-yl)methyl)acetamide]
< 1000	< 1000	< 1000	–	–	–	CC(=O)NCC1CN(c2ccc(C(F)(F)F)cc2)c2cccnc2O1 (single isomer, unassigned) [49-En1, (R)- or (S)-N-((1-(4-(trifluoromethyl)phenyl)-2,3-dihydro-1H-pyrido[2,3-b][1,4]oxazin-3-yl)methyl)acetamide]
